Like-named read-outs stand apart in the source and are kept apart here.
Experiments:
[1] = test system: MDA-MB 231 (breast cancer) cells; test: MTT antiproliferative assay, MDA-MB 231; format: cell-based; details: mean ± SEM of three experiments, read-out: IC50 values against selected human cancer cell lines, MDA-MB 231
Text: (§1) A panel of four cancer cell lines used for testing the in-vitro cytotoxicity include: MDA-MB-231 derived from human breast adenocarcinoma cells (ATCC No HTB-26), HeLa derived from human cervical cancer cells (ATCC No. CCL-2), A549 derived from human alveolar adenocarcinoma epithelial cells (ATCC No. CCL-185) and IMR-32 derived from human neuroblastoma cell line (ATCC No CCL-127), with a normal cell line HEK-293 (human embryonic kidney cell). These cancer cell lines were obtained from the American Type Culture Collection (ATCC), Manassas, VA, USA, and stored before use.
(§2) The cytotoxicity of synthesized compounds 4A–V were determined in triplicates by 3-[4,5-dimethylthiazol-2-yl]-2,5-diphenyltetrazolium bromide (MTT) assay[51]^,[52]. The pale yellow coloured tetrazolium salt (MTT) reduced to a dark blue water-insoluble formazan by metabolically active cells and the product was measured quantitatively after solubility in DMSO. The absorbance of the soluble formazan is directly proportional to the number of viable cells. A panel of four cancer cell lines were used for testing the in-vitro cytotoxicity. These cell lines were grown in Dulbecco’s modified Eagle’s medium (DMEM) containing non-essential amino acids and 10% FBS. All the cells were maintained under humidified conditions of 5% CO2 atmosphere at 37 °C in a CO2 incubator (Model Galaxy 170S, Eppendorf, USA). The 96-well micro titre plates were incubated for 24 h prior to addition of the experimental compounds. Cells were treated with vehicle alone (DMSO) or compounds (drugs (1 µg/mL) were dissolved in 100 µL DMSO previously) at different concentrations (0.1, 1, 10 and 25 µM) of test compounds for 48 h. The assay was completed with the addition of MTT (5%, 10µL) and incubated for 60 min at 37 °C. The supernatant was aspirated and plates were air dried and the MTT-formazan crystals were dissolved in 100 µL of DMSO.
(§3) The optical density (O.D) was measured at 570 nm using TECAN multimode reader (Infinite® M200Pro, Tecan, Switzerland). The percent cell viability of each treated well of 96 well plate was calculated based on test wells relative to control wells. Doxorubicin was used as positive controls for comparison purpose and 1% DMSO as a vehicle control. The cytotoxicity of test compounds was expressed in terms of IC50 value, which is defined as a concentration of compound that produced 50% reduction absorbance relative to control, and the absorbance at 570 nm wavelength was recorded.

[2] = test system: IMR-32 (neuroblast cancer) cells; test: MTT antiproliferative assay, IMR-32; format: cell-based; details: mean ± SEM of three experiments, read-out: IC50 values against selected human cancer cell lines, IMR32
Text: as §1, §2, §3

[3] = test system: HEK-293 (human embryonic kidney normal cell line); test: MTT cytotoxicity assay, normal cell line HEK-293; format: cell-based; details: for IC50: normal cell line
Text: as §1, §2, §3

[4] = test system: HeLa (cervical cancer) cells; test: MTT antiproliferative assay, HeLa; format: cell-based; details: 48 h, mean ± SEM of three experiments, read-out: IC50 values against selected human cancer cell lines, HeLa
Text: as §1, §2, §3

[5] = test system: A549 (lung cancer) cells; test: MTT antiproliferative assay, A549; format: cell-based; details: Homo sapiens, 48 h, mean ± SEM of three experiments, read-out: IC50 values against selected human cancer cell lines, A549
Protocol: These cancer cell lines were obtained from the American Type Culture Collection (ATCC), Manassas, VA, USA, and stored before use.
The pale yellow coloured tetrazolium salt (MTT) reduced to a dark blue water-insoluble formazan by metabolically active cells and the product was measured quantitatively after solubility in DMSO. The absorbance of the soluble formazan is directly proportional to the number of viable cells. A panel of four cancer cell lines were used for testing the in-vitro cytotoxicity. These cell lines were grown in Dulbecco’s modified Eagle’s medium (DMEM) containing non-essential amino acids and 10% FBS. […] The 96-well micro titre plates were incubated for 24 h prior to addition of the experimental compounds. […] The supernatant was aspirated and plates were air dried and the MTT-formazan crystals were dissolved in 100 µL of DMSO.
The optical density (O.D) was measured at 570 nm using TECAN multimode reader (Infinite® M200Pro, Tecan, Switzerland). The percent cell viability of each treated well of 96 well plate was calculated based on test wells relative to control wells. Doxorubicin was used as positive controls for comparison purpose and 1% DMSO as a vehicle control.

Row | IC50 ([1]; Homo sapiens, MDA-MB-231, 48 h) [µM] | IC50 ([2]; Homo sapiens, IMR-32, 48 h) [µM] | IC50 ([4]; Homo sapiens, HeLa) [µM] | IC50 [5] [µM] | melting point [°C] | IC50 ([1]; 48 h) [µM] | IC50 ([2]; 48 h) [µM] | IC50 [4] [µM] | SMILES | IC50 ([3]; Homo sapiens, HEK293, 48 h) [µM] | IC50 ([3]; 48 h) [µM] | Cytotoxicity towards normal cell line HEK-293 (in words) ([3]; normal cells)
1 | 13.4 ± 1.49 | 5.12 ± 0.36 | 8.74 ± 0.49 | 8.54 ± 0.85 | 123 to 125 |  |  |  | COc1cc(/C(=C\S(=O)(=O)c2ccc(C)cc2)c2ccc(F)c(Cl)c2)cc(OC)c1OC [Compound 4L] | > 25 |  | 
2 | 11.1 ± 1.5 | 6.79 ± 0.44 |  | 5.12 ± 0.08 | 96 to 98 |  |  |  | COc1cc(/C(=C\S(=O)(=O)c2ccc(C)cc2)c2ccc(Cl)cc2)cc(OC)c1OC [Compound 4M] | > 25 |  | 
3 | 9.85 ± 0.72 | 9.14 ± 0.84 | 9.64 ± 0.96 | 6.79 ± 0.19 | 151 to 153 |  |  |  | COc1cc(/C(=C\S(=O)(=O)c2ccc(C)cc2)c2ccc(Cl)c(Cl)c2)cc(OC)c1OC [Compound 4N] | > 25 |  | 
4 | 12.4 ± 1.67 | 9.08 ± 0.07 | 9.83 ± 0.76 | 9.14 ± 0.91 | 165 to 167 |  |  |  | COc1cc(/C(=C\S(=O)(=O)c2ccc(C)cc2)c2ccc(C#N)cc2)cc(OC)c1OC [Compound 4O] | > 25 |  | 
5 |  |  |  |  |  | 12.2 ± 1.61 | 7.46 ± 0.61 | 10.7 ± 0.74 | COc1cc(/C(=C\S(=O)(=O)c2ccc(C)cc2)c2cccc(C(F)(F)F)c2F)cc(OC)c1OC [Compound 4Q] |  | > 25 | 
6 | 12.2 ± 0.54 | 6.14 ± 0.03 | 10.5 ± 1.03 | 7.46 ± 0.07 |  |  |  |  | COc1cc(/C(=C\S(=O)(=O)c2ccc(C)cc2)c2cc(C)ccc2F)cc(OC)c1OC [Compound 4R] | > 25 |  | 
7 | 10.4 ± 1.55 | 6.29 ± 0.07 | 8.39 ± 0.99 | 7.22 ± 0.81 | 124 to 126 |  |  |  | COc1cc(/C(=C\S(=O)(=O)c2ccc(C)cc2)c2ccc(C)c(F)c2)cc(OC)c1OC [Compound 4T] | > 25 |  | 
8 | 23.9 ± 1.56 | 11.8 ± 0.13 | 11.7 ± 0.81 | 11.1 ± 0.78 | 132 to 134 |  |  |  | COc1cc(/C(=C\S(=O)(=O)c2ccc(C)cc2)c2ccc(-c3ccccc3)cc2)cc(OC)c1OC [Compound 4U] | > 25 |  | 
9 |  |  |  |  | 119 to 121 |  |  |  | COc1cc(C#CS(=O)(=O)c2ccc(C)cc2)cc(OC)c1OC [Compound 4V] |  |  | showed some level of cytotoxicity
10 | 0.89 ± 0.02 | 0.23 | 1.68 ± 0.24 |  |  |  |  |  | COc1cccc2c1C(=O)c1c(O)c3c(c(O)c1C2=O)C[C@@](O)(C(=O)CO)C[C@@H]3O[C@H]1C[C@H](N)[C@H](O)[C@H](C)O1 [Doxorubicin, reference compound] |  |  | 

More lines, now with the values behind:

Row | SMILES | IC50 ([1]; Homo sapiens, MDA-MB-231, 48 h) [µM] | IC50 ([2]; Homo sapiens, IMR-32, 48 h) [µM] | IC50 ([4]; Homo sapiens, HeLa) [µM] | IC50 [5] [µM] | melting point [°C] | IC50 ([1]; 48 h) [µM] | IC50 ([2]; 48 h) [µM] | IC50 [4] [µM] | IC50 ([3]; Homo sapiens, HEK293, 48 h) [µM] | IC50 ([3]; 48 h) [µM] | Cytotoxicity towards normal cell line HEK-293 (in words) ([3]; normal cells)
11 | COc1cc(/C(=C\S(=O)(=O)c2ccc(C)cc2)c2ccccc2)cc(OC)c1OC [Compound 4A, (Z)-1,2,3-trimethoxy-5-(1-phenyl-2-tosylvinyl)benzene] | 19.4 ± 1.72 | 6.4 ± 0.82 | 9.4 ± 0.72 | 6.39 ± 0.68 | 139 to 141 |  |  |  | > 25 |  | 
12 | COc1ccc(/C(=C/S(=O)(=O)c2ccc(C)cc2)c2cc(OC)c(OC)c(OC)c2)cc1 [Compound 4B] | 14.6 ± 0.85 | 4.1 ± 0.96 | 8.59 ± 0.58 | 4.68 ± 0.46 | 124 to 126 |  |  |  | > 25 |  | 
13 | COc1ccc(/C(=C/S(=O)(=O)c2ccc(C)cc2)c2cc(OC)c(OC)c(OC)c2)c(OC)c1 [Compound 4C] | 13.6 ± 1.56 | 7.04 ± 0.83 | 10.6 ± 0.56 | 7.04 ± 0.08 | 107 to 109 |  |  |  | > 25 |  | 
14 | COc1ccc(/C(=C/S(=O)(=O)c2ccc(C)cc2)c2cc(OC)c(OC)c(OC)c2)cc1OC [Compound 4D] | 14.9 ± 1.54 | 6.25 ± 0.03 | 10.9 ± 0.54 | 5.52 ± 0.06 | 173 to 175 |  |  |  | > 25 |  | 
15 | COc1cc(OC)cc(/C(=C/S(=O)(=O)c2ccc(C)cc2)c2cc(OC)c(OC)c(OC)c2)c1 [Compound 4E] | 14.1 ± 1.51 | 6.23 ± 0.09 | 11.1 ± 0.51 | 5.32 ± 0.92 | 163 to 165 |  |  |  | > 25 |  | 
16 | COc1cc(/C(=C\S(=O)(=O)c2ccc(C)cc2)c2ccc(F)cc2)cc(OC)c1OC [Compound 4G] | 13.2 ± 1.49 | 7.29 ± 0.46 | 8.73 ± 0.49 | 6.92 ± 0.65 | 141 to 143 |  |  |  | > 25 |  | 
17 | COc1cc(/C(=C\S(=O)(=O)c2ccc(C)cc2)c2ccc(C(F)(F)F)cc2)cc(OC)c1OC [Compound 4H] | 15.9 ± 1.44 | 7.48 ± 0.13 | 9.62 ± 0.44 | 6.84 ± 0.7 | 125 to 127 |  |  |  | > 25 |  | 
18 | COc1cc(/C(=C\S(=O)(=O)c2ccc(C)cc2)c2ccc(F)cc2F)cc(OC)c1OC [Compound 4I] | 12.7 ± 0.4 | 15.1 ± 0.16 | 9.46 ± 0.4 | 13.1 ± 0.86 | 113 to 115 |  |  |  | > 25 |  | 
19 | COc1cc(/C(=C\S(=O)(=O)c2ccc(C)cc2)c2ccc(F)c(F)c2)cc(OC)c1OC [Compound 4J] | 13.1 ± 0.92 | 12.03 ± 0.02 | 9.98 ± 0.42 | 11.3 ± 0.83 | 140 to 142 |  |  |  | > 25 |  | 
20 | CCOc1ccc(F)c(/C(=C/S(=O)(=O)c2ccc(C)cc2)c2cc(OC)c(OC)c(OC)c2)c1 [Compound 4K] | 13.6 ± 0.89 | 8.06 ± 0.09 | 9.5 ± 0.49 | 7.02 ± 0.84 | 125 to 127 |  |  |  | > 25 |  | 

Source: paper PMC8814031, “Synthesis and characterization of novel combretastatin analogues of 1,1-diaryl vinyl sulfones, with antiproliferative potential via in-silico and in-vitro studies” (Scientific Reports, 2022)
